Measurements as given in US7105656B2, “Compositions and methods for treating hematologic malignancies and multiple drug resistance” (The Brigham and Women's Hospital, Inc., priority 2000, dated 2006).

What was measured:
KB cells = test: Multicellular spheroid model, doxorubicin toxicity by BCECF labeling; format: cell-based; conditions: doxorubicin 1 μM
Protocol: Multicellular spheroid model: A multicellular spheroid model was developed using KB cells grown at high density of membrane permeable supports. Briefly, KB cells in suspension were plated at high density (˜10^7 cells/cm^2) on 0.33 cm^2 collagen-coated permeable supports (Corning-Costar, Cambridge, Ma.) and allowed to grow as domes on these substrates for two weeks. Media was replaced every other day and at two weeks, multicellular spheroids were subjected to a 24 or 48 hr period of hypoxia or normoxia, in the presence or absence of the P-glycoprotein substrate doxorubicin (1 μM final concentration) (Sigma, St Louis, Mo.). At the termination of the experiment, the number of viable, intact cells was determined by measurement of the amount of esterase cleavable fluorescent marker 2′7′-bis(carboxyethyl)-5(6)-carboxyfluorescein pentaacetoxymethyl ester (BCECF-AM, 5 μM final concentration Calbiochem, San Diego, Calif.) retained over a 30 min period, a sensitive measurement cytoxicity) (Wierda et al., J. Immunol. […] Multicellular spheroids were washed three times in HBSS and fluorescence intensity was measured on a fluorescent plate reader. […]

SUMO-1 = molecular target: T1, SUMO-1 (Homo sapiens, UniProt P63165); test: sumo-1 antisense oligonucleotides, induction of HIF-1 in hypoxia; format: cell-based
T1 construct: endogenous in cells
Text: Posttranslational SUMOlation influences HIF-1α regulated gene expression. In order to test that HIF-1 is SUMO-1 modified, we conducted experiments which indicated an association of HIF-1α both with endogenous as well as epitope (hexahistidine)-tagged SUMO-1 HIF-1α induction was rapid and was detected by immunopecipitating SUMO-1. To further investigate the impact of SUMOlation on HIF-1 conveyed gene expression, we designed antisense oligonucleotides AS31(SEQ ID NO: 22), AS64 (SEQ ID NO: 23), and AS617 (SEQ ID NO: 24) directed against SUMO-1. […] Thus, we were able to modify the HIF-1 conveyed hypoxia adaptive response by administration of sumo-1 antisense oligonucleotides.

mdr1 gene = test: Genechip expression array screen of epithelial cells for mdr1 induction; format: cell-based, human; conditions: T84 epithelial cells, exposure similar to hypoxia (6 and 18 hrs)
Protocol: Analysis of messenger RNA levels by RT-PCR: The transcriptional profile of epithelial cells exposed to ambient hypoxia was assessed in RNA derived from control or hypoxic epithelia (T84 cells at 6 or 18 hr hypoxia) using quantitative genechip expression arrays (Affymetrix, Inc., Santa Clara, Calif.) (Lockhart et al., Nat. Biotechnol., 14, 1675–1680, 1996). RT-PCR analysis of mRNA levels was performed using DNAse treated total RNA as previously described (Taylor et al., J. Biol. Chem., 274, 19447–19450, 1999) using primers specific for mdr1 (forward primer 5′-AACGGAAGCCAGAACATTCC-3′ (SEQ ID NO: 37) and reverse primer 5′-AGGCTTCCTGTGGCAAAGAG-3′ (SEQ ID NO: 38), 180 bp fragment), HIF-1α (forward primer 5′- CTCAAAGTCGGACAGCCTCA-3′ (SEQ ID NO: 39) and reverse primer 5′-CCCTGCAGTAGGTTTCTGCT -3′ (SEQ ID NO: 40), 460 bp fragment) or control β-actin (forward primer 5′-ATGACTTCCAAGCTGGCCGTGGCT-3′ (SEQ ID NO: 41) and antisense primer 5′-TCTCAGCCCTCTTCAAAAACTTCTC-3′ (SEQ ID NO: 42), 661 bp fragment). Each primer set was amplified using 25 cycles, unless otherwise noted, of 94° C. for 1 min, 60° C. for 2 min, 72° C. for 4 min, and a final extension of […] for 7 min. The PCR reactions were then visualized on a 1.5% agarose gel containing 5 μg/ml of ethidium bromide. […]

T1 sequence (P63165 1-97 limits assumed): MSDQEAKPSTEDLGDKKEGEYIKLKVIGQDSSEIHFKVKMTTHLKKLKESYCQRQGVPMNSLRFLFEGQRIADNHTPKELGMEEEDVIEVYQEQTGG

Molecule	induction of HIF-1 in hypoxia (SUMO-1)	other results
COc1cccc2c1C(=O)c1c(O)c3c(c(O)c1C2=O)C[C@@](O)(C(=O)CO)C[C@@H]3O[C@H]1C[C@H](N)[C@H](O)[C@H](C)O1 [doxorubicin]	–	degree of cell death (number of intact cells, BCECF labeling) (KB cells; 24 hr hypoxia vs normoxia, p<0.01): significantly decreased; degree of cell death (number of intact cells, BCECF labeling) (KB cells; 48 hr hypoxia vs normoxia, p<0.001): significantly decreased
AS31: antisense oligonucleotide directed against SUMO-1 (antisense CACAGCAGCGGCCTCGGGTA; chemistry not given here)	able to modify the induction of HIF-1 in hypoxia	–
AS64: antisense oligonucleotide directed against SUMO-1 (antisense CATGATGACGGTGGCTTCAC; listed as DNA, chemistry not given here)	able to modify the induction of HIF-1 in hypoxia	–
AS617: antisense oligonucleotide directed against SUMO-1 (antisense GTGACCTCTCTGTGCACACG; listed as DNA, chemistry not given here)	able to modify the induction of HIF-1 in hypoxia	–
IFN-γ: proinflammatory cytokine (protein, UniProt P01579 24-161, looked up) Interferon gamma: QDPYVKEAENLKKYFNAGHSDVADNGTLFLGILKNWKEESDRKIMQSQIVSFYFKLFKNFKDDQSIQKSVETIKEDMNVKFFNSNKKKRDDFEKLTNYSVTDLNVQRKAIHELIQVMAELSPAAKTGKRKRSQMLFRG	–	induction of mdr1 (mdr1 gene): did not induce mdr1
